Consider five molecules from paper PMC4168902 (2014).

The subject of experiment [1] is poly dA–poly dT (DNA, polymer) A/T. The experiment can be described thus: UV–vis titration, Scatchard fit. Particulars: Na+ (sodium cacodylate, I = 0.05 M); sodium cacodylate pH 7.0, 25 °C; polynucleotide as nucleobases/phosphates; per base.
Experiment [2] concerns poly A–poly U (poly rA–poly rU) (RNA, polymer) A/U. Briefly: UV–vis titration, Scatchard fit. Particulars: Na+ (sodium cacodylate, I = 0.05 M); sodium cacodylate pH 7.0, 25 °C; polynucleotide as nucleobases/phosphates; per base.
Experiment [3] deals with poly dG–poly dC (DNA, polymer) G/C. Briefly: UV–vis titration, Scatchard fit. Particulars: Na+ (sodium cacodylate, I = 0.05 M); sodium cacodylate pH 7.0, 25 °C; polynucleotide as nucleobases/phosphates; per base.
For experiment [4], the system named is poly dAdT–poly dAdT (DNA, polymer) AT. Briefly: UV thermal melting at 260 nm. The conditions noted are these: Na+ (sodium cacodylate, I = 0.05 M); sodium cacodylate pH 7.0; r = [compound]/[polynucleotide] = 0.3; per base.
Experiment [5] relates to poly dA–poly dT (DNA, polymer) A/T. Briefly: UV thermal melting at 260 nm. The conditions noted are these: Na+ (sodium cacodylate, I = 0.05 M); sodium cacodylate pH 7.0; r = [compound]/[polynucleotide] = 0.3; per base.
The subject of experiment [6] is poly A–poly U (poly rA–poly rU) (RNA, polymer) A/U. Briefly: UV thermal melting at 260 nm. The conditions noted are these: Na+ (sodium cacodylate, I = 0.05 M); sodium cacodylate pH 7.0; r = [compound]/[polynucleotide] = 0.3; per base.
Experiment [7] deals with poly dAdT–poly dAdT (DNA, polymer) AT. The experiment can be described thus: UV–vis titration, Scatchard fit. Particulars: Na+ (sodium cacodylate, I = 0.05 M); sodium cacodylate pH 7.0, 25 °C; polynucleotide as nucleobases/phosphates; per base.

Some results are limits rather than exact numbers.

`Nc1ncnc2c1ncn2CCCCCOc1ccccc1C(=O)C1=CNc2ccccc2N=CC(C(=O)c2ccccc2OCCCCC[n+]2ccccc2)=CNc2ccccc2N=C1`: the “log Ks” value in experiment [1] is recorded as 5.4; in experiment [2] it was 6.6; in experiment [3], 5.8.

For the molecule `Nc1ncnc2c1ncn2CCCCCCOc1ccccc1C(=O)C1=CNc2ccccc2N=CC(C(=O)c2ccccc2OCCCCCC[n+]2ccccc2)=CNc2ccccc2N=C1`, the “log Ks” value in experiment [1] is given as 5.0; in experiment [2] it was 5.7; in experiment [3] it was 5.6. The ΔTm in experiment [4], in experiment [5] and in experiment [6] was 0 °C throughout.

Turning to `Nc1ncnc2c1ncn2CCCOc1ccccc1C(=O)C1=CNc2ccccc2N=CC(C(=O)c2ccccc2OCCC[n+]2ccccc2)=CNc2ccccc2N=C1`, the “log Ks” value in experiment [1] was 6.2; in experiment [7], 6.1; in experiment [2], 6.0; in experiment [3], 5.5. Besides, the thermal shift (ΔTm) (usually the shift of the melting midpoint relative to a reference) in experiment [4] was below 3 °C; in experiment [5], 0.7 °C; in experiment [6], 0.5 °C.

As to `C[N+](C)(C)CCCOc1ccccc1C(=O)C1=CNc2ccccc2N=CC(C(=O)c2ccccc2OCCCn2cnc3c(N)ncnc32)=CNc2ccccc2N=C1`, the “log Ks” value in experiment [1] is 5.9; in experiment [7], 5.5; in experiment [2], 5.8; in experiment [3], 5.7. Besides, the ΔTm in experiment [4] was below 2 °C; in experiment [5] it was 0 °C; in experiment [6], 0 °C.

Take `CCCCCCOc1ccccc1C(=O)C1=CNc2ccccc2N=CC(C(=O)c2ccccc2OCCC[n+]2ccccc2)=CNc2ccccc2N=C1`: the shift in melting temperature (ΔTm) in experiment [4], in experiment [5] and in experiment [6] was 0 °C throughout.
